Measurements reported in US7749953B2, “Methods compositions and articles of manufacture for modulating bone growth” (Yissum Research Development Company of the Hebrew …, priority 2002, dated 2010).
“Also recorded” adds a separate entry of the source.

Tests used:
[1] = test system: 11 week-old C3H (Harlan) mice; assay: In vivo bone formation activity, calcein dynamic histomorphometry of distal femoral metaphysis
Protocol: The endocannabinoid 2-arachidonoyl glycerol (2AG) and the CB1 cannabinoid receptor antagonist N-(piperidin-1-yl)-5-(4-chlorophenyl)-1-(2,4-dichlorophenyl)4-methyl-1H-pyrazole-3-carboxamide hydrochloride (SR-141761A; Panikashvili et al., Nature 413: 527-531 (2001)] were dissolved in 1:1:18 ethanol:emulfor:saline (v/v/v) vehicle. Different dosages of each agent were daily injected intraperitoneally to 11 week-old C3H (Harlan) mice. 2AG was administered at 0 (vehicle control), 0.5, 5, and 20 mg/Kg body weight per day for 9 days; SR-141761A was administered at 1 and 10 mg/Kg body weight per day for 9 days.
To assess the in vivo bone formation activity the mice were given 15 mg/Kg body weight calcein intrapertoneally, four days and one day (same day as the last 2AG injection) prior to sacrifice. Femoral bones were separated immediately after sacrifice and subjected, undecalcified, to histological processing. Dynamic bone histomorphometric parameters were analyzed in the distal metaphysis (secondary spongiosa) in unstained longitudinal mid-saggital sections, using the procedure described by Parfitt et al. [J. Bone Miner. Res. 2: 595-610 (1987)]. The data obtained were statistically analyzed by Mann-Whitney U-test to determine significance of differences between the treatments.

[2] = test system: diaphyseal bone marrow derived stromal cells; assay: Cell count, TNSALP activity and mineralization in differentiating primary bone marrow stromal cells (10 days osteogenic medium); format: cell-based, mice; details: for number of diaphyseal bone marrow derived stromal cells: cells grown 10 days in osteogenic medium, counted after 48 h with ligand
Protocol: mRNA analysis: Primary osteoblastogenic cultures of stromal cells were prepared from femoral and tibial diaphyseal bone marrow of WT C57BL/6J mice and grown in “osteogenic medium” containing ascorbic acid, β-glycerophophate and dexamethasone (Sigma) as described by Frenkel et al. (17). Real-time RT-PCR analysis was carried out using Applied Biosystems Assay-on-Demand. Data was normalized GAPDH. Assay ID: GAPDH, Mm99999915_g1; CB1, Mm00432621_s1; CB2, Mm00438286_m1; PTHRc1, Mm00441046_m1; RUNX2, Mm00501578_m1; TNSALP, Mm00475831_m1. RT-PCR analysis was carried out using the primers described by Lee et al. (19).
(§1) In vitro effect of HU-308: Differentiating primary bone marrow stromal cells and MC3T3 E1 osteoblasts were initially incubated in osteogenic medium for 10 days followed by 2 h serum starvation. Ligands were dissolved in dimethylsulfoxide (DMSO) and further diluted to their final concentration using tissue culture medium. In the primary cultures, cells were counted after 48 h incubation in αMEM supplemented with 4% BSA and ligand. BrdU incorporation was determined in MC3T3 E1 cells after 24 h incubation with HU-308 preceded by 2 h with pertussis toxin (PTX). DNA content, tissue non-specific alkaline phosphatase (TNSALP) activity and calcium were determined in MC3T3 E1 cells grown for 20 days in osteogenic medium and supplemented with HU-308 in the last 14 days. The effect of HU-308 on osteoclast differentiation was measured in the osteoclastogenic system described above, supplemented with HU-308 dissolved initially in DMSO and diluted with medium. HU-308 was also tested in a RAW 264.7 cell grown for 7 days in RANKL-supplemented medium. For osteoclast-like cell counts the cultures were fixed in ethanol and TRAP-stained.

[3] = test system: mature MC3T3 E1 cells; assay: DNA content, TNSALP activity and calcium in mature MC3T3 E1 osteoblasts; format: cell-based, murine; details: 20 days osteogenic medium, HU-308 during last 14 days
Protocol: as §1

[4] = test system: OVX C3H mice; assay: OVX-induced femoral bone loss, μCT and histomorphometry; format: in vivo; details: HU-308 10 mg/Kg/day i.p.
Protocol: Animals: Mice with a deletion of the CNR2 gene (CB2^−/− mice) (9) were crossed for 10 generations to wild type C57BL/6J mice to generate a congenic C57BL/6J CB2^−/− strain. The effect of CB2 signalling on OVX-induced bone loss was analysed in normal C3H mice (Harlan, Israel) due to their high femoral bone density (10), which allows for a substantial amount of bone loss to occur. Because of the low trabecular bone volume density in C57BL/6J females (FIG. 8A), the absolute amount of OVX-induced bone loss in these animals is small and a large sample is required to achieve statistical significance. In addition, the number of calcein labelled packets (see below) in OVX C57BL/6J mice is often too small for the calculation of bone formation parameters in the trabecular compartment. HU-308, synthetic CB2 specific agonist with a MW of 414 g/mol, was prepared as described by Hildebrand et al. (11) and injected intraperitoneally to OVX and control mice once daily as ethanol/emulphor/saline (1:1:18) solution. To study bone formation, newly formed bone was vitally labelled in all reported animals by the fluorochrome calcein (Sigma), injected intraperitoneally (15 mg/Kg) four days and one day prior to sacrifice. Groups of 8-10 mice, 8-11 or 51 weeks old, were used in each experiment. The experimental protocols were approved by the Institutional Animal Care and Use Committee, Faculty of Medicine, the Hebrew University of Jerusalem, Israel and by the Regierungspräsidium Köln for the University of Bonn, Germany.
Micro-computed tomographic (μCT) analysis: The μCT Analyses were performed as described in Example 1 above.
Histomorphometry and immunohistochemistry: After μCT image acquisition, the specimens were embedded undecalcified in Technovit 9100 (Heraeus Kulzer, Wehrheim, Germany). Longitudinal sections through the mid-frontal plane were left unstained for dynamic histomorphometry based on the vital calcein double labeling. To identify osteoclasts, consecutive sections were stained for tartrate-resistant acid phosphatase (TRAP) (14). Parameters were determined according to a standardized nomenclature (15). Immunohistochemistry was performed using paraffin-embedded decalcified sections (16) with a polyclonal first antibody raised against the human CB2(20-33) peptide (Cayman Ann Arbor, Mich.; Cat. No. 101550). The same peptide (Cayman Ann Arbor, Mich.; Cat. No. 301550) was used to block protein-antibody complex formation in control staining.
Statistical Analyses: Differences between CB2^−/− and WT mice were analysed by t-test. HU-308 and vehicle treated OVX and sham-OVX mice were analysed by ANOVA. When significant differences were indicated by ANOVA, group means were compared using the Tukey test for pairwise comparisons.

[5] = test system: RAW 264.7 cells; assay: Osteoclast-like cell count in RAW 264.7 cell culture; format: cell-based; details: 7-day RAW 264.7 cell culture supplemented with M-CSF
Protocol: as §1

[6] = test system: primary bone marrow derived monocytes; assay: Osteoclast differentiation, TRAP-positive osteoclast-like cell count in bone marrow derived monocyte culture with M-CSF and RANKL; format: cell-based, Mouse; details: 5 days in the presence of M-CSF and RANKL
Protocol: Mouse femoral monocytes were separated on a Ficoll gradient and grown in culture for 5 days in medium containing the osteoclast differentiation factors M-CFS and RANKL as described by Zou et al FASEB J 2002; 16:274-82). At the end of incubation cultures were analyzed for CB2 and FAAH expression by RT-PCR as described above, and were stained with an osteoclast marker tartarate-resistant acid phosphatase for direct observation of differentiated osteoclasts.
as §1, with “Ligands were dissolved in dimethylsulfoxide (DMSO) and further diluted to their final concentration using tissue culture medium.” left out, “HU-308 was also tested in a RAW 264.7 cell grown for 7 days in RANKL-supplemented medium. For osteoclast-like cell counts the cultures were fixed in ethanol and TRAP-stained.” left out

[7] = test system: MC3T3 E1 cells; assay: BrdU incorporation (DNA synthesis) in partially differentiated MC3T3 E1 osteoblastic cells; format: cell-based, murine; details: 24 h exposure to HU-308
Protocol: as §1

[8] = 2AG up to 5 mg/Kg/day i.p. for 9 days, followed by a plateau
[9] = SR-141761A up to 10 mg/Kg/day i.p. for 9 days, data not shown
[10] = early differentiation stage (10 days osteogenic medium)
[11] = 4 weeks from ovariectomy, distal femoral metaphysis

Structure (SMILES): CCCCC/C=C\C/C=C\C/C=C\C/C=C\CCCC(=O)OC(CO)CO [2AG, 2-arachidonoyl glycerol]
- uptake of fluorescently labeled calcein in bone tissue (fluorescent histological images) ([1]; 2AG 5 mg/Kg/day vs vehicle-treated controls): visibly increased
- mineralizing perimeter (MP) vs control ([1]; 2AG 5 and 20 mg/Kg/day i.p. for 9 days, p=0.019): substantially and significantly higher
- bone-formation rate (BFR) higher than the vehicle control ([1]; 2AG 5 and 20 mg/Kg/day intraperitoneally for 9 days, p=0.04): up to 44%
- mineral appositional rate ([1]; 2AG i.p. for 9 days): no significant effect
- bone-formation rate (BFR), dose response [1, 8]: dose-dependent stimulation; also recorded: significant positive dose response effect
- mineralizing perimeter (MP), dose response [1, 8]: dose-dependent increase

Structure (SMILES): Cc1c(C(=O)NN2CCCCC2)nn(-c2ccc(Cl)cc2Cl)c1-c1ccc(Cl)cc1.Cl [SR-141761A, N-(piperidin-1-yl)-5-(4-chlorophenyl)-1-(2,4-dichlorophenyl)4-methyl-1H-pyrazole-3-carboxamide hydrochloride]
- BFR (osteoblastic activity) vs vehicle control [1, 9]: higher (but not statistically different)
- MP (osteoblast number) vs vehicle control [1, 9]: higher and statistically different

Structure (SMILES): CCCCC/C=C\C/C=C\C/C=C\C/C=C\CCCCOC(CO)CO [Noladin ether, 2-arachidonyl glyceryl ether, reference compound]
- number of diaphyseal bone marrow derived stromal cells [2]: no significant effect

Structure (SMILES): CCCCCCC(C)(C)c1cc(OC)c([C@H]2C=C(CO)C3CC2C3(C)C)c(OC)c1 (single isomer, unassigned; (+)) [HU-308, (+)-(1-a-H,-(3-H,5-a-H)-4-(2,6-dimethoxy-4-(1,1-dimethylhept-yl)phenyl]-6,6 dimethylbicycloj3.1.1]hept-2-ene-2-carbinol]
- TNSALP activity [3]: markedly enhanced
- accumulation of extracellular mineral [3]: markedly enhanced
- cell number (measured as DNA content) ([3]; compared with partially differentiated cells): milder
- number of diaphyseal bone marrow derived stromal cells [2]: potently increased
- TNSALP activity [2, 10]: unaffected
- matrix mineralization [2, 10]: unaffected
- bone formation in the trabecular compartment ([4]; 4 weeks from ovariectomy): did not stimulate
- OVX-induced trabecular bone loss (trabecular bone volume density) [4, 11]: attenuation
- osteoclast number [4, 11]: further inhibited
- endocortical bone formation ([4]; 4 weeks, mid-diaphysis): vast stimulation
- size of the medullary cavity ([4]; 4 weeks, mid-diaphysis): significant reduction
- cortical thickness ([4]; 4 weeks, mid-diaphysis, exceeded OVX and sham-OVX mice): marked increase
- number of osteoclast-like cells [5]: reduced
- number of osteoclast-like cells [6]: dose dependently inhibited
- DNA synthesis (BrdU uptake) [7]: stimulation
